Test results: publication PMC6888270 (International Journal of Molecular Sciences, 2019)
Square brackets hold non-standard residues; d marks the D form. Peptide text beside a SMILES is read from it. d(hArg(Et2)) = CCN=C(NCC)NCCCC[C@@H](N)C(=O)O; hArg(Et2) = CCN=C(NCC)NCCCC[C@H](N)C(=O)O; dPhe(4-Cl) = N[C@H](Cc1ccc(Cl)cc1)C(=O)O; d2Nal = N[C@H](Cc1ccc2ccccc2c1)C(=O)O; dCit = NC(=O)NCCC[C@@H](N)C(=O)O; d3Pal = N[C@H](Cc1cccnc1)C(=O)O

Tests used:
GnRH receptor (GnRHR) [1] = target: T1, GnRH receptor (GnRHR) (Homo sapiens, UniProt P30968); assay: BRET (CAMYEL) measurement of cAMP accumulation in HEK293/GnRHR cells; assay type: cell-based; design: HA (hemagglutinin); expressed in transfected cells; host or cells: HEK293 (transient co-transfection with BRET biosensor)
T1 sequence (P30968 1-328): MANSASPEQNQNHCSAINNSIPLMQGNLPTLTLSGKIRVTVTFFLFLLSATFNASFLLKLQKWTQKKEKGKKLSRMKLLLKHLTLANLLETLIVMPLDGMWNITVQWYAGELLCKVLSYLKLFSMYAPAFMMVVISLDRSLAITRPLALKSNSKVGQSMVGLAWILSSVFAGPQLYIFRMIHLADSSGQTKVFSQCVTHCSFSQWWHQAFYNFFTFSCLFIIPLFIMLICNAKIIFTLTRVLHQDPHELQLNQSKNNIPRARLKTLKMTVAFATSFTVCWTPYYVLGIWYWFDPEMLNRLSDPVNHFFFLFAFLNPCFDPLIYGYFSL
Method: (§1) Different transfection protocols were followed, depending on the endpoint to be measured. For BRET experiments, 3 × 10^4 cells were transiently transfected using vectors expressing the cAMP-CAMYEL or the aequorin-Ca^2+ BRET biosensor-encoding cDNA [59], as appropriate, together with the GnRHR-HA-encoding vector. Transfections were performed in a 96-well plate using the Metafectene PRO reagent (Biontex, München, Germany), as previously described. […]
(§2) cAMP accumulation was measured in cells transiently expressing both the BRET-based cAMP biosensor CAMYEL [64] and GnRHR. […] BRET signals were detected at 475 and 535 nm wavelengths upon the addition of 5 µM Coelenterazine H (NanoLight Technologies). […]
(§3) BRET experiments were performed using a CLARIOstar plate reader equipped by a monocromator (BMG Labtech, Ortenberg, Germany), as previously described.
(§4) Data were plotted on graphs as means ± standard error of means (SEM). […] Data distributions were analyzed by D’Agostino and Pearson normality tests and inhibition of intracellular Ca^2+ increase by different concentrations of antagonist were compared using two-way analysis of variance (ANOVA), followed by Bonferroni post-test or Kruskal-Wallis and proper post-test. cAMP accumulation was represented as acceptor:donor emission ratio (induced BRET changes) after basal subtraction (untreated cells). […]

GnRH receptor (GnRHR) [2] = target: T1, GnRH receptor (GnRHR); assay: BRET measurement of GnRH-induced intracellular Ca2+ increase in SH-SY5Y/GnRHR cells; assay type: cell-based; design: HA (hemagglutinin); expressed in transfected cells; conditions: means±SEM, n=6
Method: Different transfection protocols were followed, depending on the endpoint to be measured. For BRET experiments, 3 × 10^4 cells were transiently transfected using vectors expressing the cAMP-CAMYEL or the aequorin-Ca^2+ BRET biosensor-encoding cDNA [59], as appropriate, together with the GnRHR-HA-encoding vector. Transfections were performed in a 96-well plate using the Metafectene PRO reagent (Biontex, München, Germany), as previously described. 100 ng of the receptor-encoding vector + 100 ng of the BRET biosensor-encoding vector were used for co-transfecting HEK293 cells, while SH-SY5Y cells were co-transfected using 200 ng of the receptor-encoding vector + 100 ng of the BRET biosensor-encoding vector. 200 ng of the aequorin-Ca^2+ BRET biosensor-encoding cDNA were used for transfecting LβT2 cells. Each sample was prepared in duplicate, cultured for 48 h and serum-starved over-night before experiments.
To evaluate Ca^2+ increase, cells were incubated in Hank’s Balanced Salt Solution (HBSS) with Ca^2+ and Mg^2+, 1 mM Hepes and 5 µM Coelenterazine H (NanoLight Technologies, a division of Prolume, Ltd., Pinetop, AZ, USA), for 45 minutes, together with Cetrorelix, Ganirelix, Teverelix or vehicle, as appropriate. […] The EC50 was extrapolated from the curve obtained from each cell line. Cells treated by 5 µM of the sarco/endoplasmic reticulum Ca^2+ ATPase enzyme inhibitor, thapsigargin (Tocris Bioscience), served as positive control. Treatment by the vehicle (HBSS) was the negative control and used as a normalizer.
as §3
Data were plotted on graphs as means ± standard error of means (SEM). The kinetics of intracellular Ca^2+ increase was represented by the BRET biosensor emission after background subtraction (vehicle). […] Data distributions were analyzed by D’Agostino and Pearson normality tests and inhibition of intracellular Ca^2+ increase by different concentrations of antagonist were compared using two-way analysis of variance (ANOVA), followed by Bonferroni post-test or Kruskal-Wallis and proper post-test. cAMP accumulation was represented as acceptor:donor emission ratio (induced BRET changes) after basal subtraction (untreated cells). Dose-response curves were obtained by data interpolation using non-linear regressions and normalized as percentage of the maximal response. EC50s, as well as half-maximal inhibitory concentrations (IC50), were compared by t-test or Mann–Whitney U test, while results obtained by Western blotting and qRT-PCR data were compared by one-way ANOVA followed by Bonferroni post-test. Statistical differences were considered as significant for p < 0.05. These analyses were performed using the GraphPad Prism software (GraphPad Software Inc., San Diego, CA, USA).

Lhb gene expression = Lhb gene expression by qRT-PCR in LβT2 cells; assay type: cell-based, mouse; conditions: 1 µM GnRH + 1 µM antagonist, 24 h, n = 4
Method: LβT2 cells were seeded in 24-well plates (2 × 10^5 cells/well) and cultured for 24 h in DMEM supplemented with 10% Charcoal Stripped FBS, 4.5 g/L glucose, 100 IU/mL penicillin, 0.1 mg/mL streptomycin, and 1 mM glutamine (all from Sigma-Aldrich) before treatments. […] Samples were lysed for RNA extraction using TRIzolTM Reagent (Invitrogen) and equal amounts of total RNA were used for cDNA synthesis performed using the iScript reverse transcriptase (BioRad), as previously described. qRT-PCR was carried out in triplicates on the CFX96TM Real-Time PCR Detection System (BioRad) using the following primers pairs: [NT] for mouse Lhb; [NT] for mouse Gapdh. Primer sequences were drawn using the Mus musculus Lhb (NCBI Reference Sequence: NM_008497.2) and Gapdh (NM_008084.3) mRNAs as templates. Gene expression of Lhb was normalized to mouse Gapdh gene expression using the 2^-ΔΔCt method.

GnRH receptor (GnRHR) [3] = target: T1, GnRH receptor (GnRHR); assay: BRET (CAMYEL) measurement of cAMP accumulation in SH-SY5Y/GnRHR cells; assay type: cell-based; design: HA (hemagglutinin); expressed in transfected cells
Method: as §1, §2, §3, §4

[4] = 3xEC50 GnRH + 100 pM antagonist
[5] = 3xEC50 GnRH + 100 nM antagonist
[6] = read-out: IC50 of inhibition of GnRH-induced cAMP accumulation

Compound	IC50 (GnRH receptor (GnRHR) [1]) [nM]	AUC of the kinetics of intracellular Ca2+ response (GnRH receptor (GnRHR) [2]; 3xEC50 GnRH + 1 pM antagonist)	AUC of the kinetics of intracellular Ca2+ response (GnRH receptor (GnRHR) [2]; 3xEC50 GnRH + 10 pM antagonist)	AUC of the kinetics of intracellular Ca2+ response (GnRH receptor (GnRHR) [2]; [4])	AUC of the kinetics of intracellular Ca2+ response (GnRH receptor (GnRHR) [2]; 3xEC50 GnRH + 1 nM antagonist)	AUC of the kinetics of intracellular Ca2+ response (GnRH receptor (GnRHR) [2]; 3xEC50 GnRH + 10 nM antagonist)	AUC of the kinetics of intracellular Ca2+ response (GnRH receptor (GnRHR) [2]; 3xEC50 GnRH + 20 nM antagonist)	AUC of the kinetics of intracellular Ca2+ response (GnRH receptor (GnRHR) [2]; [5])	AUC of the kinetics of intracellular Ca2+ response (GnRH receptor (GnRHR) [2]; 3xEC50 GnRH + 1 uM antagonist)	effect on GnRH-induced Lhb gene expression (Lhb gene expression)	IC50 (GnRH receptor (GnRHR) [3]) [nM]	IC50 (GnRH receptor (GnRHR) [1]; [6]) [nM]	IC50 (GnRH receptor (GnRHR) [3]; [6]) [nM]
CC(=O)N[C@H](Cc1ccc2ccccc2c1)C(=O)N[C@H](Cc1ccc(Cl)cc1)C(=O)N[C@H](Cc1cccnc1)C(=O)N[C@@H](CO)C(=O)N[C@@H](Cc1ccc(O)cc1)C(=O)N[C@H](CCCNC(N)=O)C(=O)N[C@@H](CC(C)C)C(=O)N[C@@H](CCCNC(=N)N)C(=O)N1CCC[C@H]1C(=O)N[C@H](C)C(N)=O [Cetrorelix] (Ac-[d2Nal][dPhe(4-Cl)][d3Pal]SY[dCit]LRP[dA]-NH2)	0.84	105586±22643	103653±11947	118914±31558	81413±26479	81282±26769	58382±8030	46414±15714	13355±4381	inhibited	1.56 ± 2.49	–	–
CCN=C(NCC)NCCCC[C@H](NC(=O)[C@H](CC(C)C)NC(=O)[C@@H](CCCCNC(=NCC)NCC)NC(=O)[C@H](Cc1ccc(O)cc1)NC(=O)[C@H](CO)NC(=O)[C@@H](Cc1cccnc1)NC(=O)[C@@H](Cc1ccc(Cl)cc1)NC(=O)[C@@H](Cc1ccc2ccccc2c1)NC(C)=O)C(=O)N1CCC[C@H]1C(=O)N[C@H](C)C(N)=O [Ganirelix] (Ac-[d2Nal][dPhe(4-Cl)][d3Pal]SY[d(hArg(Et2))]L[hArg(Et2)]P[dA]-NH2; N-terminus and C-terminus assumed)	–	93877±14161	113983±12281	116076±24125	75460±15613	83904±19566	52343±8665	82720±17902	6523±3056	inhibited	–	0.61	16.6 ± 3.76
